From the CombiSolv-Exp solvation set (Vermeire and Green 2021)

Assay: solvent given as SMILES

CC(Cl)(Cl)Cl
Settings	solvation free energy, 298 K [kcal/mol]
in C1CCOC1	-4.35
in CC(=O)CC(C)C	-4.28
in CC(C)=O	-4.23
in CC(C)O	-3.56
in CCCCCCCCCCCCCC	-3.61
in CCCCCCCCCCCCCCCC	-3.67
in CCCCCCCCN(CCCCCCCC)CCCCCCCC	-3.63
in CCCCCCCCO	-3.67
in CCCCCN(CCCCC)CCCCC	-3.78
in CCCCCl	-4.32
in CCCCN(CCCC)CCCC	-3.69
in CCCCOCCCC	-4.08
in CCCO	-3.94
in CCOCC	-4.13
in ClC(Cl)(Cl)Cl	-4.24
in ClC(Cl)Cl	-4.42
in ClCCCl	-4.24
in [2H]O[2H]	-0.57

COc1ccc(N)cc1
Settings	solvation free energy, 298 K [kcal/mol]
in CC(C)CCO	-8.92
in O	-7.54

CCOC(=O)OCC
Settings	solvation free energy, 298 K [kcal/mol]
in COC(C)(C)C	-5.35
in ClC(Cl)(Cl)Cl	-5.78
in O	-3.28

CN(C)C1CCCCC1
Settings	solvation free energy, 298 K [kcal/mol]
in O	-4.12

Oc1c(I)cc(I)cc1I
Settings	solvation free energy, 298 K [kcal/mol]
in CC(C)CC(C)(C)C	-12.4
in CCCCOCCCC	-14.2
in O	-7.16

CNc1nc(NC(C)C)nc(SC)n1
Settings	solvation free energy, 298 K [kcal/mol]
in O	-10.5

Cc1ccc(CN)cc1
Settings	solvation free energy, 298 K [kcal/mol]
in O	-6.07

CC1=CC2C(CCC(C)=CCC1)C2(C)C (centres undefined)
Settings	solvation free energy, 298 K [kcal/mol]
in O	-0.52

COc1c(Cl)cc(Cl)c(OC)c1O
Settings	solvation free energy, 298 K [kcal/mol]
in O	-6.44

Clc1cc(Cl)c(Cl)c(Cl)c1Cl
Settings	solvation free energy, 298 K [kcal/mol]
in CCCCCCCCC=CCCCCCCCC(=O)OCC(COC(=O)CCCCCCCC=CCCCCCCCC)OC(=O)CCCCCCCC=CCCCCCCCC	-8.79
in CCCCCCCCO	-8.85
in O	-1.69

C=CC
Settings	solvation free energy, 298 K [kcal/mol]
in C1CCC2CCCCC2C1	-1.43
in C1COCCO1	-1.36
in CC1COC(=O)O1	-0.97
in CC(C)(C)O	-1.35
in CC(C)CC(C)(C)C	-1.61
in CC(C)CCO	-1.31
in CC(C)CO	-1.3
in CC(C)O	-1.32
in CCC(C)(C)O	-1.39
in CCC(C)=O	-1.54
in CCC(C)CO	-1.3
in CCC(C)O	-1.32
in CCC(O)CC	-1.31
in CCCC(C)O	-1.31
in CCCCC	-1.79
in CCCCCC	-1.75
in CCCCCCC	-1.74
in CCCCCCCC	-1.71
in CCCCCCCCC	-1.7
in CCCCCCCCCC	-1.68
in CCCCCCCCCCCCCCCC	-1.32
in CCCCCCCCO	-1.25
in CCCCCO	-1.32
in CCCCO	-1.41
in CCCO	-1.35
in CCOC(C)=O	-1.51
in CN1CCCC1=O	-1.24
in CN(C)C=O	-1.3
in CN(C)P(=O)(N(C)C)N(C)C	-1.39
in CO	-1.3
in COCCOCCOCCOC	-1.06
in CS(C)=O	-0.78
in Cc1ccc(C)cc1	-1.58
in Cc1cccc(C)c1	-1.58
in Cc1ccccc1C	-1.56
in ClC(Cl)(Cl)Cl	-1.84
in Nc1ccccc1	-1.08
in O	1.22
in OCCCOCCCO	-0.76
in OCCO	-0.45
in OCc1ccccc1	-1.09
in c1ccccc1	-1.64

Clc1cccc2c1Oc1ccccc1O2
Settings	solvation free energy, 298 K [kcal/mol]
in O	-3.52

CCOP(=S)(OCC)Oc1ccc([N+](=O)[O-])cc1
Settings	solvation free energy, 298 K [kcal/mol]
in O	-6.74

CCC(C)O (centres undefined)
Settings	solvation free energy, 298 K [kcal/mol]
in Brc1ccccc1	-4.15
in C1COCCO1	-5.54
in CC#N	-4.82
in CC(=O)N(C)C	-5.89
in CC(C)(C)O	-5.67
in CC(C)CC(C)(C)C	-3.42
in CC(C)O	-5.61
in CC(C)OC(C)C	-4.56
in CCC(C)=O	-5.18
in CCCCCC	-3.56
in CCCCCCC	-3.28
in CCCCCCCC	-3.26
in CCCCCCCCCCCCCCCC	-3.16
in CCCCCCCCCCO	-5.31
in CCCCCCCCO	-5.15
in CCCCCl	-4.17
in CCCCO	-5.5
in CCCCOC(C)=O	-4.9
in CCCOCCC	-4.4
in CCOC(=O)c1ccccc1C(=O)OCC	-4.35
in CN(C)C=O	-5.67
in CO	-6.02
in Cc1ccc(C)cc1	-4.23
in Cc1cccc(C)c1	-4.14
in Cc1ccccc1C	-4.19
in Clc1ccccc1	-4.26
